From ChEMBL document CHEMBL1133670 (J Med Chem, 2000) come the findings set out here.

Data set [1] addresses T1, Protein farnesyltransferase (Rattus norvegicus) (UniProt Q04631+Q02293). The data set is described as follows: Percent phenotypic reversion of H-ras transformed Rat-1 cells at 10 uM. It is filed as functional, cell-based.
In data set [2] the target is Protein farnesyltransferase (Homo sapiens, UniProt P49354+P49356). The data set is described as follows: Inhibition of purified recombinant human farnesyltransferase (FT).
Data set [3] relates to Mus musculus. The data set is described as follows: In vivo antitumor activity (log cell kill, LCK) by subcutaneous implantation of HCT116 tumors followed by oral administration at an optimal dose of 600 mg/kg in expt. 5. In kind it is functional.
In a further data set the test system is NIH3T3. The data set is described as follows: cells. The following applies: Mus musculus.
The test system of data set [4] is Mus musculus. The data set is described as follows: In vivo antitumor activity (log cell kill, LCK) by subcutaneous implantation of HCT116 tumors followed by oral administration at an optimal dose of 600 mg/kg in expt. 4. It is filed as functional.
For data set [5], the target named is T1, Protein farnesyltransferase (Rattus norvegicus). The data set is described as follows: Percent phenotypic reversion of H-ras transformed Rat-1 cells at 1 uM. In kind it is functional, cell-based.
The species named for data set [6] is Mus musculus. The data set is described as follows: Increase in lifespan reflected by relative median survival time of treated versus control groups expressed as maximum % T/C. In kind it is functional.
The nature of data set [7]: in vivo. The following applies: rat, iv, 50 mg/kg.
Description: Volume of distribution (Vss) in rats following intravenous dose of 50 mg/kg
Data set [8] is described as follows: Half-life of compound in rats following intravenous dose of 50 mg/kg. The following applies: rat, in vivo.
The nature of data set [9]: in vivo. The following applies: rat, po, 50 mg/kg.
Description: Oral bioavailability observed in rats at an oral dose of 50 mg/kg
Data set [10] can be described thus: Clearance in rats following intravenous dose of 50 mg/kg. The following applies: rat, in vivo.
The nature of data set [11]: Maximum concentration observed in rats at an oral dose of 50 mg/kg. The following applies: rat, in vivo.
Data set [12] has as its system Mus musculus. The data set is described as follows: In vivo antitumor activity (log cell kill, LCK) by subcutaneous implantation of HCT116 tumors followed by oral administration at an optimal dose of 600 mg/kg in expt. 3. It is filed as functional.
Data set [13] can be described thus: Half-life of compound in Balb/c mice following an oral dose of 90 mg/kg. The following applies: Balb/c mouse, in vivo.
Data set [14] in a line: Oral bioavailability, based on dose-normalized AUC values in BALB/c mice. It is filed as ADME, organism-based. The following applies: mouse, in vivo.
For data set [15], the system named is Mus musculus. The data set is described as follows: In vivo antitumor activity (log cell kill, LCK) by subcutaneous implantation of HCT116 tumors followed by oral administration at an optimal dose of 600 mg/kg in expt. 2. In kind it is functional.
For data set [16], the target named is T1, Protein farnesyltransferase (Rattus norvegicus). The data set is described as follows: Percent phenotypic reversion of H-ras transformed Rat-1 cells at 5 uM. In kind it is functional, cell-based.
The subject of data set [17] is Mus musculus. The data set is described as follows: In vivo antitumor activity (log cell kill, LCK) by subcutaneous implantation of HCT116 tumors followed by oral administration at an optimal dose of 700 mg/kg in expt. 1. In kind it is functional.
The test system of data set [18] is Mus musculus. The data set is described as follows: In vivo antitumor activity (log cell kill, LCK) by subcutaneous implantation of HCT116 tumors followed by oral administration at an optimal dose of 600 mg/kg in mice.

Description for NIH3T3: Inhibition of anchorage independent growth of H-ras transformed NIH3T3 cells in Soft Agar

For the compound `CC1CN(Cc2c[nH]cn2)c2ccccc2CN1C(=O)c1cccc2ccccc12` (stereo not given), the Reversion in data set [1] worked out at 0%. In addition, in [2], the IC50 turned out to be 1100 nM. With `CN(C)CCS(=O)(=O)N1Cc2cc(C#N)ccc2N(Cc2c[nH]cn2)C[C@H]1Cc1ccccc1`, the LCK with Mus musculus [3] was 1. The compound further registered an EC50 with NIH3T3 of 30 nM. The IC50 in data set [2] worked out at 1.53 nM. The compound `CN(C)S(=O)(=O)N1Cc2cc(C#N)ccc2N(Cc2c[nH]cn2)C[C@H]1Cc1ccccc1` gave an EC50 in the data set on NIH3T3 of 50 nM. In the data set on Mus musculus [4], this compound gave an LCK of 0.2. The IC50 in [2] stood at 2.85 nM. In turn, `CCCS(=O)(=O)N1Cc2cc(C#N)ccc2N(Cc2cnc[nH]2)C[C@H]1Cc1ccccc1` yielded an EC50 with NIH3T3 of 10 nM. Moreover, the IC50 in [2] was found to be 1.77 nM. With `O=C(c1cccc2ccccc12)N1Cc2ccccc2N(Cc2c[nH]cn2)CC1Cc1ccccc1` (stereo not given), in [1], the Reversion is 70%. In addition, in [2], the IC50 was found to be 276 nM. As for `CC(=O)N1Cc2cc(C#N)ccc2N(Cc2c[nH]cn2)C[C@H]1Cc1ccccc1`, the EC50 in the data set with NIH3T3 was found to be 100 nM. For the same compound, the IC50 in data set [2] came to 8.75 nM. Turning to `CC(=O)N1Cc2cc(Br)ccc2N(Cc2c[nH]cn2)CC1Cc1ccccc1` (stereo not given), the EC50 in the data set on NIH3T3 came to 600 nM. In [5], the Reversion was 30%. Also, the IC50 in data set [2] came out at 60 nM. On to `CS(=O)(=O)N1Cc2cc(Br)ccc2N(Cc2cnc[nH]2)CC1CNC(=O)c1ccccc1` (stereo not given), for which, in data set [2], the IC50 is 86 nM. Regarding `O=C(c1cccc2ccccc12)N1CCN(Cc2c[nH]cn2)c2ccccc2C1`, the Reversion in data set [1] was found to be 0%. Turning to `O=C(c1cccc2ccccc12)N1CCN(Cc2cnc[nH]2)c2ccc(Br)cc2C1`, the IC50 in data set [2] stood at 228 nM. `CS(=O)(=O)N1Cc2cc(-c3ccccc3)ccc2N(Cc2c[nH]cn2)CC1Cc1ccccc1` (stereo not given) showed an EC50 in the data set on NIH3T3 of 530 nM. In data set [5], the Reversion was 70%. `CN(C)C(=O)N1Cc2cc(C#N)ccc2N(Cc2c[nH]cn2)C[C@H]1Cc1ccccc1` had a Reversion in data set [5] of 40%. For the same compound, the IC50 in data set [2] was 17 nM.

Compound `COc1ccc(CC2CN(Cc3c[nH]cn3)c3ccc(Br)cc3CN2S(C)(=O)=O)cc1` (stereo not given) returned a Reversion in data set [5] of 0%. Further, the IC50 in [2] is 101 nM. Regarding `CC(=O)N1Cc2cc(Br)ccc2N(Cc2c[nH]cn2)CC1Cc1cccc2ccccc12` (stereo not given), the Reversion in data set [5] came to 5%. As for `CCOC(=O)N1Cc2cc(C#N)ccc2N(Cc2c[nH]cn2)C[C@H]1Cc1ccccc1`, in the data set on NIH3T3, a half-maximal effect (EC50) was put at 300 nM. Besides, in data set [5], the Reversion was 50%. In data set [2], the IC50 is 22 nM. On to `CS(=O)(=O)N1Cc2cc(Br)ccc2N(Cc2c[nH]cn2)CC1Cc1ccccc1` (stereo not given), for which a half-maximal effect in the data set on NIH3T3 (EC50) was put at 270 nM. The compound also showed a Reversion in data set [5] of 80%. Also, the T/C in the data set listed under Mus musculus [6] turned out to be 138%.

Turning to `N#Cc1ccc2c(c1)CN(S(=O)(=O)c1cccs1)[C@H](Cc1ccccc1)CN2Cc1cnc[nH]1` [BMS-214662], the Vd in “in vivo [7]” worked out at 1.4 L/kg. This compound also had a half-life in data set [8] of 144 min. Also, the bioavailability in “in vivo [9]” is 56%. The same compound yielded a clearance in [10] of 5.7 mL/min/kg. The Cmax in data set [11] came to 20 µM. In the case of `CS(=O)(=O)N1Cc2cc(Br)ccc2N(Cc2c[nH]cn2)CC1Cc1cccc(Cl)c1` (stereo not given), in [1], the Reversion is 70%. The IC50 in data set [2] was determined as 24 nM. As to `CC(=O)N1Cc2ccccc2N(Cc2c[nH]cn2)CC1Cc1ccccc1` (stereo not given), the IC50 in [2] turned out to be 1300 nM.

`CS(=O)(=O)N1Cc2cc(Br)ccc2N(Cc2c[nH]cn2)CC1CNC(=O)c1ccccc1` (stereo not given) showed a Reversion in data set [5] of 0%. Consider `CS(=O)(=O)N1Cc2cc(Br)ccc2N(Cc2c[nH]cn2)CC1CCc1ccccc1` (stereo not given), for which, in the data set on NIH3T3, a half-maximal effect (EC50) was put at 400 nM. The compound also showed a Reversion in [5] of 70%. As for `CS(=O)(=O)N1Cc2cc(-c3ccccc3)ccc2N(Cc2cnc[nH]2)CC1Cc1ccccc1` (stereo not given), the IC50 in [2] was 54.5 nM.

In the data set with NIH3T3, `CS(=O)(=O)N1Cc2cc(Br)ccc2N(Cc2c[nH]cn2)CC1Cc1ccccc1Cl` (stereo not given) yielded an EC50 of 460 nM. This compound registered a Reversion in [5] of 70%. Besides, in [2], the IC50 was 18 nM. In the case of `CS(=O)(=O)N1Cc2cc(Br)ccc2N(Cc2cnc[nH]2)C[C@@H]1Cc1ccccc1`, in [2], the IC50 came to 437 nM.

For the compound `CS(=O)(=O)N1Cc2cc(Br)ccc2N(Cc2cnc[nH]2)CC1CCc1ccccc1` (stereo not given), in data set [2], the IC50 turned out to be 45 nM. Consider `CS(=O)(=O)N1Cc2cc(C#N)ccc2N(Cc2c[nH]cn2)C[C@H]1Cc1ccccc1`, for which the EC50 with NIH3T3 is 13 nM. Besides, the IC50 in data set [2] came out at 3 nM. The LCK in the data set on Mus musculus [12] is given as 0.6. Take `CS(=O)(=O)N1Cc2cc(-c3cccnc3)ccc2N(Cc2cnc[nH]2)CC1Cc1ccccc1` (stereo not given): the IC50 in [2] turned out to be 7.9 nM. Turning to `N#Cc1ccc2c(c1)CN(S(=O)(=O)c1ccccc1)[C@H](Cc1ccccc1)CN2Cc1cnc[nH]1`, the EC50 with NIH3T3 came to 10 nM. In addition, the IC50 in data set [2] is 1.77 nM. In data set [13], `CS(=O)(=O)N1Cc2cc(Br)ccc2N(Cc2cnc[nH]2)C[C@H]1Cc1ccccc1` gave a half-life of 72 min. Moreover, in data set [2], the IC50 amounted to 10.7 nM. The bioavailability in data set [14] was determined as 40%. Consider `CS(=O)(=O)N1Cc2cc(-c3ccncc3)ccc2N(Cc2c[nH]cn2)C[C@H]1Cc1ccccc1`, for which the LCK in the data set on Mus musculus [15] was determined as 0.2. Further, in the data set with NIH3T3, the midpoint of the response, the EC50, lay at 40 nM. For the same compound, the IC50 in data set [2] was determined as 16 nM. Compound `O=C(c1cccc2ccccc12)N1CCN(Cc2c[nH]cn2)c2ccc(Br)cc2C1` showed a Reversion in data set [16] of 5%. For `CS(=O)(=O)N1Cc2cc(-c3cccnc3)ccc2N(Cc2c[nH]cn2)CC1Cc1ccccc1` (stereo not given), in [5], the Reversion was 10%. Regarding `CS(=O)(=O)N1Cc2cc(-c3ccccc3)ccc2N(Cc2cnc[nH]2)C[C@H]1Cc1ccncc1`, in data set [2], the half-inhibitory concentration (IC50) is 383 nM.

Regarding `CS(=O)(=O)N1Cc2cc(Br)ccc2N(Cc2cnc[nH]2)CC1Cc1ccccc1` (stereo not given), the IC50 in data set [2] worked out at 30 nM.

In the case of `CS(=O)(=O)N1Cc2cc(Br)ccc2N(Cc2cnc[nH]2)C[C@H]1CC1CCCCC1`, the IC50 in data set [2] turned out to be 23.5 nM.

`CC(=O)N1Cc2cc(Br)ccc2N(Cc2cnc[nH]2)CC1Cc1cccc2ccccc12` (stereo not given): the IC50 in [2] came to 54.5 nM.

Take `CS(=O)(=O)N1Cc2cc(Br)ccc2N(Cc2c[nH]cn2)C[C@H]1CC1CCCCC1`: the Reversion in data set [1] was found to be 90%. `CS(=O)(=O)N1Cc2cc(Br)ccc2N(Cc2c[nH]cn2)C[C@H]1Cc1ccccc1` came in with an EC50 in the data set with NIH3T3 of 290 nM. Further, in the data set on Mus musculus [17], the LCK is 1.5. In [5], this compound registered a Reversion of 70%. `CS(=O)(=O)N1Cc2cc(-c3ccccc3)ccc2N(Cc2c[nH]cn2)C[C@H]1Cc1cccnc1`: the LCK with Mus musculus [18] is 0.1. Also, the EC50 with NIH3T3 stood at 15 nM. In addition, the IC50 in data set [2] stood at 5.95 nM.

What is called IC50 is the concentration that gives 50% inhibition. The EC50 is the concentration giving half of the maximal effect. A high value points to a less potent agent. In general, T/C refers to the ratio of treated to control. Usually Vd stands for a proportionality between amount in the body and measured concentration, not a real space. The low end stands for confinement near the circulation, the high end for extensive tissue distribution. One may read the half-life as the time in which the quantity being followed falls by half. Broadly, the bioavailability is the share of a dose that reaches the circulation, judged against a reference dose that is usually intravenous. As usually defined, the clearance is a measure of how efficiently the substance is removed, as volume per time. Read a high clearance as efficient removal. As a reminder, the Cmax is the peak of the concentration-time curve.
